Columns and labels:
[1] = Drug excretion in Wistar rat urine at 750 mg/kg, po after 72 hrs by HPLC-UV analysis; assay type: ADME, organism-based; parameters: dose 750 mg/kg, route oral; details: in vivo
[2] = Drug excretion in Wistar rat urine at 750 mg/kg, po after 18 to 24 hrs by HPLC-UV analysis; assay type: ADME, organism-based; parameters: dose 750 mg/kg, route oral; details: in vivo
[3] = Drug metabolism in Wistar rat assessed as excretion of 7-methoxy-4-oxo-2-phenyl-4H-chromen-5-yl hydrogen sulfate in urine at 750 mg/kg, po by LC-MS and LC-MS/MS analysis; assay type: ADME, organism-based; parameters: dose 750 mg/kg, route oral; details: in vivo
[4] = Drug excretion in Wistar rat feces at 750 mg/kg, po after 12 to 18 hrs by HPLC-UV analysis; assay type: ADME, organism-based; parameters: dose 750 mg/kg, route oral; details: in vivo
[5] = AUC in Wistar rat at 250 mg/kg, po by HPLC analysis; assay type: ADME, organism-based; parameters: dose 250 mg/kg, route oral; details: plasma
[6] = AUC in Wistar rat at 250 mg/kg, iv by HPLC analysis; assay type: ADME, organism-based; parameters: dose 250 mg/kg, route intravenous; details: plasma
[7] = Half life in Wistar rat at 250 mg/kg, po by HPLC analysis; assay type: ADME, organism-based; parameters: dose 250 mg/kg, route oral; details: in vivo
[8] = Half life in Wistar rat at 250 mg/kg, iv by HPLC analysis; assay type: ADME, organism-based; parameters: dose 250 mg/kg, route intravenous; details: Wistar, in vivo
[9] = Elimination rate constant in Wistar rat at 250 mg/kg, po by HPLC analysis; assay type: ADME, organism-based; parameters: dose 250 mg/kg, route oral; details: in vivo, read-out: Ke (converted)
[10] = Elimination rate constant in Wistar rat at 250 mg/kg, iv by HPLC analysis; assay type: ADME, organism-based; parameters: dose 250 mg/kg, route intravenous; details: Wistar, in vivo, read-out: Ke (converted)
[11] = Clearance in Wistar rat at 250 mg/kg, po by HPLC analysis; assay type: ADME, organism-based; parameters: dose 250 mg/kg, route oral; details: in vivo
[12] = Clearance in Wistar rat at 250 mg/kg, iv by HPLC analysis; assay type: ADME, organism-based; parameters: dose 250 mg/kg, route intravenous; details: in vivo
[13] = Tmax in Wistar rat at 250 mg/kg, po by HPLC analysis; assay type: ADME, organism-based; parameters: dose 250 mg/kg, route oral; details: in vivo
[14] = Cmax in Wistar rat at 250 mg/kg, po by HPLC analysis; assay type: ADME, organism-based; parameters: dose 250 mg/kg, route oral; details: in vivo
Rattus norvegicus [15] = experiment: Volume of distribution in Wistar rat at 250 mg/kg, po by HPLC analysis; assay type: ADME, organism-based; parameters: dose 250 mg/kg, route oral; details: in vivo
Rattus norvegicus [16] = experiment: Absorption rate constant in Wistar rat at 250 mg/kg, po by HPLC analysis; assay type: ADME, organism-based; parameters: dose 250 mg/kg, route oral; details: in vivo
[17] = Oral bioavailability in Wistar rat at 250 mg/kg by HPLC analysis; assay type: ADME, organism-based; details: in vivo
Liver = experiment: AUC (0.083 to 4 hrs) in Wistar rat liver at 750 mg/kg, po by LC-MS/MS analysis; assay type: ADME, organism-based; parameters: time 0.083-4 hr, dose 750 mg/kg, route oral; details: in vivo
Kidney = experiment: AUC (0.083 to 4 hrs) in Wistar rat kidney at 750 mg/kg, po by LC-MS/MS analysis; assay type: ADME, organism-based; parameters: time 0.083-4 hr, dose 750 mg/kg, route oral; details: in vivo
Lung = experiment: AUC (0.083 to 4 hrs) in Wistar rat lung at 750 mg/kg, po by LC-MS/MS analysis; assay type: ADME, organism-based; parameters: time upper 4 hr, time lower 0.083 hr, dose 750 mg/kg, route oral; details: in vivo
Brain = experiment: AUC (0.083 to 4 hrs) in Wistar rat brain at 750 mg/kg, po by LC-MS/MS analysis; assay type: ADME, organism-based; parameters: time 0.083-4 hr, dose 750 mg/kg, route oral; details: in vivo
[18] = Cmax in Wistar rat liver at 750 mg/kg, po by LC-MS/MS analysis; assay type: ADME, organism-based; parameters: dose 750 mg/kg, route oral
[19] = Cmax in Wistar rat kidney at 750 mg/kg, po by LC-MS/MS analysis; assay type: ADME, organism-based; parameters: dose 750 mg/kg, route oral
[20] = Cmax in Wistar rat lung at 750 mg/kg, po by LC-MS/MS analysis; assay type: ADME, organism-based; parameters: dose 750 mg/kg, route oral
[21] = Cmax in Wistar rat brain at 750 mg/kg, po by LC-MS/MS analysis; assay type: ADME, organism-based; parameters: dose 750 mg/kg, route oral
[22] = Cmax in Wistar rat testes at 750 mg/kg, po by LC-MS/MS analysis; assay type: ADME, organism-based, Testis; parameters: dose 750 mg/kg, route oral
[23] = Tmax in Wistar rat liver at 750 mg/kg, po by LC-MS/MS analysis; assay type: ADME, organism-based; parameters: dose 750 mg/kg, route oral
[24] = Tmax in Wistar rat kidney at 750 mg/kg, po by LC-MS/MS analysis; assay type: ADME, organism-based; parameters: dose 750 mg/kg, route oral
[25] = Tmax in Wistar rat lung at 750 mg/kg, po by LC-MS/MS analysis; assay type: ADME, organism-based; parameters: dose 750 mg/kg, route oral
[26] = Tmax in Wistar rat brain at 750 mg/kg, po by LC-MS/MS analysis; assay type: ADME, organism-based; parameters: dose 750 mg/kg, route oral
[27] = Tmax in Wistar rat testes at 750 mg/kg, po by LC-MS/MS analysis; assay type: ADME, organism-based, Testis; parameters: dose 750 mg/kg, route oral
[28] = Drug metabolism in Wistar rat assessed as excretion of 5,7-dihydroxy-2-phenyl-4H-chromen-4-one in urine/feces at 750 mg/kg, po by LC-MS and LC-MS/MS analysis; assay type: ADME, organism-based; parameters: dose 750 mg/kg, route oral; details: in vivo
[29] = Drug excretion in Wistar rat urine at 750 mg/kg, po after 12 hrs by HPLC-UV analysis; assay type: ADME, organism-based; parameters: dose 750 mg/kg, route oral; details: in vivo
[30] = Drug excretion in Wistar rat feces at 750 mg/kg, po after 12 hrs by HPLC-UV analysis; assay type: ADME, organism-based; parameters: dose 750 mg/kg, route oral; details: in vivo
[31] = Drug metabolism in Wistar rat assessed as excretion of 2-phenyl-5-((2S,3R,4S,5S,6R)-3,4,5-trihydroxy-6-(hydroxymethyl)tetrahydro-2H-pyran-2-yloxy)-4H-chromen-4-one in urine at 750 mg/kg, po by LC-MS and LC-MS/MS analysis; assay type: ADME, organism-based; parameters: dose 750 mg/kg, route oral; details: in vivo
[32] = Drug excretion in Wistar rat urine at 750 mg/kg, po after up to 72 hrs by HPLC-UV analysis; assay type: ADME, organism-based; parameters: dose 750 mg/kg, route oral; details: read-out: Drug excretion
[33] = Drug excretion in Wistar rat feces at 750 mg/kg, po after up to 72 hrs by HPLC-UV analysis; assay type: ADME, organism-based; parameters: dose 750 mg/kg, route oral; details: faeces, read-out: Drug excretion
[34] = AUC (0.083 to 4 hrs) in Wistar rat testes at 750 mg/kg, po by LC-MS/MS analysis; assay type: ADME, organism-based, Testis; parameters: time 0.083-4 hr, dose 750 mg/kg, route oral; details: in vivo
[35] = Drug metabolism in Wistar rat urine/feces treated with 750 mg/kg, po of 5,7-dimethoxyflavone by LC-MS and LC-MS/MS analysis; assay type: ADME, organism-based; parameters: dose 750 mg/kg, route oral; details: in vivo
[36] = Drug metabolism in Wistar rat urine/feces treated with 750 mg/kg, po of 5,7,4'-trimethoxyflavone by LC-MS and LC-MS/MS analysis; assay type: ADME, organism-based; parameters: dose 750 mg/kg, route oral; details: in vivo
[37] = Drug metabolism in Wistar rat urine/feces treated with 750 mg/kg, po of 3,5,7,3',4'-pentamethoxyflavone by LC-MS and LC-MS/MS analysis; assay type: ADME, organism-based; parameters: dose 750 mg/kg, route oral; details: in vivo

SMILES: COc1cc(OC)c2c(=O)cc(-c3ccccc3)oc2c1 [CHRYSIN DIMETHYL ETHER]
- Drug excretion [1]: metabolite_not_detected
- Drug excretion [2]: Active
- Drug metabolism [3]: metabolite_detected
- Drug excretion [4]: Active
- AUC [5]: 7.01 µg·h/mL
- AUC [6]: 233 µg·h/mL
- half-life [7]: 5.85 h
- half-life [8]: 3.75 h
- k el [9]: 3.61e-05 s⁻¹
- k el [10]: 8.89e-05 s⁻¹
- CL/F [11]: 6.12 mL/min
- clearance [12]: 0.133 mL/min
- Tmax [13]: 0.76 h
- Cmax [14]: 780 ng/mL
- Vd (Rattus norvegicus [15]): 2957.53 mL
- ka (Rattus norvegicus [16]): 8.69 h⁻¹
- bioavailability [17]: 2.1%
- AUC (Liver): 8.6 µg·h/g
- AUC (Kidney): 2.51 µg·h/g
- AUC (Lung): 2.17 µg·h/g
- AUC (Brain): 1.91 µg·h/g
- Cmax [18]: 3850 ng/g
- Cmax [19]: 1330 ng/g
- Cmax [20]: 2000 ng/g
- Cmax [21]: 960 ng/g
- Cmax [22]: 910 ng/g
- Tmax [23]: 2.57 h
- Tmax [24]: 3.43 h
- Tmax [25]: 1.2 h
- Tmax [26]: 3.14 h
- Tmax [27]: 2.86 h
- Drug metabolism [28]: metabolite_detected
- Drug excretion [29]: Active
- Drug excretion [30]: Active
- Drug metabolism [31]: metabolite_detected
- dose excreted at 72 h [32]: 0.96%
- dose excreted at 72 h [33]: 3.1%
- AUC [34]: 1.9 µg·h/g

SMILES: O=c1cc(-c2ccccc2)oc2cc(O)cc(O)c12 [CHRYSIN]
- Drug metabolism [35]: metabolite_detected

SMILES: COc1cc(O)c2c(=O)cc(-c3ccc(O)cc3)oc2c1 [GENKWANIN]
- Drug metabolism [36]: metabolite_detected

SMILES: COc1cc(O)c2c(=O)c(O)c(-c3ccc(OC)c(O)c3)oc2c1 [OMBUINE]
- Drug metabolism [37]: metabolite_detected

— ChEMBL document CHEMBL3526121, “Pharmacokinetics, bioavailability, tissue distribution, excretion, and metabolite identification of methoxyflavones in Kaempferia parviflora extract in rats” (Drug Metab Dispos, 2012)
